Measurements as given in PubChem BioAssay (NCI).
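Grown in 96-well plates, cells were treated for 48 hours with each compound at five concentrations. Insufficient inhibition: endpoint recorded as highest concentration tested. Abbreviation: GI50, concentration required for 50% inhibition of growth. TGI is the concentration that stops growth completely.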

Key:
Test in all cases: NCI-60 cell line screen, 48 h
[1] = tested on: NCI-H226 lung
[2] = tested on: NCI-H23 lung
[3] = tested on: NCI-H460 lung
[4] = tested on: NCI-H522 lung
[5] = tested on: NCI/ADR-RES ovarian
[6] = tested on: OVCAR-3 ovarian
[7] = tested on: OVCAR-4 ovarian
[8] = tested on: OVCAR-5 ovarian
[9] = tested on: OVCAR-8 ovarian
[10] = tested on: PC-3 prostate
[11] = tested on: RPMI-8226 leukemia
[12] = tested on: RXF 393 renal
[13] = tested on: SF-268 CNS
[14] = tested on: SF-295 CNS
[15] = tested on: SF-539 CNS
[16] = tested on: SK-MEL-2 melanoma
[17] = tested on: SK-MEL-28 melanoma
[18] = tested on: SK-MEL-5 melanoma
[19] = tested on: SK-OV-3 ovarian
[20] = tested on: SN12C renal
[21] = tested on: SNB-19 CNS
[22] = tested on: SNB-75 CNS
[23] = tested on: SR leukemia
[24] = tested on: SW-620 colon
[25] = tested on: T-47D breast
[26] = tested on: TK-10 renal
[27] = tested on: U251 CNS
[28] = tested on: UO-31 renal

With `CS(=O)(=O)c1ccc(Oc2cc(F)cc(C#N)c2)c2c1[C@H](O)C(F)(F)C2` the GI50 [1] was > 100 µM, the TGI [1] was > 100 µM and the GI50 [2] was > 100 µM. The TGI [2] was > 100 µM, the GI50 [3] was > 100 µM and the TGI [3] was > 100 µM. For the same molecule, the GI50 [4] was > 100 µM, the TGI [4] was > 100 µM and the GI50 [5] was > 100 µM. For the same molecule, the TGI [5] was > 100 µM, the GI50 [6] was > 100 µM and the TGI [6] was > 100 µM. For the same molecule, the GI50 [7] was > 100 µM, the TGI [7] was > 100 µM and the GI50 [8] was > 100 µM. The TGI [8] was > 100 µM, the GI50 [9] was > 100 µM and the TGI [9] was > 100 µM. The GI50 [10] was > 100 µM, the TGI [10] was > 100 µM and the GI50 [11] was > 100 µM. For the same molecule, the TGI [11] was > 100 µM, the GI50 [12] was > 100 µM and the TGI [12] was > 100 µM. The GI50 [13] was > 100 µM, the TGI [13] was > 100 µM and the GI50 [14] was > 100 µM. The TGI [14] was > 100 µM, the GI50 [15] was > 100 µM and the TGI [15] was > 100 µM. The GI50 [16] was > 100 µM, the TGI [16] was > 100 µM and the GI50 [17] was > 100 µM. The TGI [17] was > 100 µM, the GI50 [18] was > 100 µM and the TGI [18] was > 100 µM. The GI50 [19] was > 100 µM, the TGI [19] was > 100 µM and the GI50 [20] was > 100 µM. For the same molecule, the TGI [20] was > 100 µM, the GI50 [21] was > 100 µM and the TGI [21] was > 100 µM. For the same molecule, the GI50 [22] was > 100 µM, the TGI [22] was > 100 µM and the GI50 [23] was > 100 µM. The TGI [23] was > 100 µM, the GI50 [24] was > 100 µM and the TGI [24] was > 100 µM. For the same molecule, the GI50 [25] was > 100 µM, the TGI [25] was > 100 µM and the GI50 [26] was > 100 µM. The TGI [26] was > 100 µM, the GI50 [27] was > 100 µM and the TGI [27] was > 100 µM. The GI50 [28] was > 100 µM and the TGI [28] was > 100 µM.
